Tests used:
[1] = system: PBMCs from healthy donors and cancer patients; experiment: IFNγ ELISPOT of PBMCs pre-stimulated one week in vitro with peptide and low-dose IL-2; format: cell-based, human; conditions: for IFNy ELISPOT response: validation of hotspot region peptides, PBMCs from two healthy donors, FIG. 4
Description: For in vitro ELISPOT, PBMCs from cancer patients and healthy donors were pulsed with 20 μM of […] (or with no peptide as a control) and 120 U/ml IL-2 in 24-well plates for 7 days before being used in an ELISPOT assay. The cells were placed in 96-well nitrocellulose ELISPOT plates (MultiScreen MAIP N45; Millipore) pre-coated with IFNγ capture antibody (Mabtech). Arginase peptides added to a final concentration of 5 μM and plates incubated at 37° C. for 14-16 hours. After the incubation the cells were washed off and secondary biotinylated Ab (Mabtech, cat. 3420-{6-1000) was added for 2 hours at room temperature. Unbound secondary antibody was washed off and streptavidin conjugated alkaline phosphatase (AP) (Mabtech, cat. 3310-10) was added for 1 hour at room temperature. Unbound conjugated enzyme was washed off and the assay was developed by adding BCIP/NBT substrate (Mabtech, cat. 3650-10). Developed ELISPOT plates were analyzed on CTL ImmunoSpot S6 Ultimate-V analyzer using Immunospot software v5.1. Responses were reported as the difference between average numbers of spots in wells stimulated with arginase2 and wells without added peptide.
To test whether these peptides could be used to identify Arginase2 responses, PBMCs from 12 healthy donors and one cancer patients were screened for responses in IFNγ ELISPOT. PBMCs were stimulated with Arginase2 peptides and low dose IL-2 for 1 week prior to ELISPOT.
The entire arginase2 protein sequence was divided into overlapping 20-amino-acid-long peptides (with a final peptide of 24 amino acids), generating a library of 34 peptides covering the whole sequence (SEQ ID NOs 1-34)). Each peptide in the library overlapped with the first 10 amino acids of the following peptide. Using this arginase2 peptide library and the IFNγ ELISPOT assay, we next screened PBMCs from 6 healthy donors for spontaneous responses. The PBMCs were stimulated for one week with a pool of 3-4 adjacent 20-mer arginase2 library peptides and low-dose IL-2 (120 U/mL). They were then set up for an IFNγ ELISPOT assay to screen for responses against each 20-mer peptide separately.
PBMCs from two healthy donors were stimulated for one week with a single peptide and low-dose IL-2 (120 U/mL) before IFNy ELISPOTassay to validate the responses observed in the library screen.
PBMCs from […] were stimulated for one week with a single peptide and low-dose IL-2 (120 U/mL) before IFNy ELISPOTassay to validate the responses observed in the library screen. ARG2_1, ARG2_5, ARG2_13, ARG2_18 and ARG2_22 were tested in this validation.
ARG2_1 was used to screen for responses in 8 melanoma patients (AA07-AA31), 4 prostate cancer patients (UR07-27) and 13 healthy donors. PBMCs from each were stimulated for one week with a single peptide and low-dose IL-2 (120 U/mL) before IFNy ELISPOT assay.
PBMCs from healthy donors or cancer patients were stimulated with 10 μM of ARG2-derived peptides in vitro to enhance assay sensitivity. On day 2, IL-2 was added to a total of 120 U/ml IL-2 (Novartis). After 7 days, 4-6×10^5 PBMCs were placed at the bottom of an ELISPOT plate pre-coated with IFNy capture antibody (Mabtech). PBMCs from each donor or patient were set up in triplicates or quadruplicates for peptide (5 μM ARG2-derived peptide) and control stimulations. Cells were incubated in ELISPOT plates in the presence of an antigen for 14-16 hrs after which they were washed off and secondary biotinylated antibody (Mabtech) was added. After two hour incubation the secondary antibody was washed off before addition of streptavidin conjugated alkaline phosphatase (Mabtech) for 1 hr. Next, unbound enzyme was washed off and the assay was developed by adding BCIP/NBT subtrate (Mabtech). Developed ELISPOT plates were analyzed on CTL Immunospot S6 Ultimate-V analyzer with ImmunoSpot software, version 5.1. […]

C57BL/6 mice = experiment: Peptide vaccination of mice followed by murine IFNy ELISPOT of spleen cells; format: in vivo, mouse; conditions: for mIFNy ELISPOT response to the peptide in mice vaccinated with mArg2 P5: FIG. 13; for mIFNy ELISPOT response after vaccination: three C57 mice per peptide vaccinated s.c., 7 days, FIG. 12 / FIG. 20A
Source text: 3 mice in each group are vaccinated s.c. with one of the six peptides. 7 days after, the mice are terminated, spleens are homogenised and PBMC are used for mIFNy ELISPOT.
These peptides are used for a vaccination screen (see experimental schematic in FIG. 11), where three C57 mice are vaccinated subcutaneously with one of the 6 peptides. One week later, the mice are sacrificed and the spleens homogenized to obtain PBMC. These are used to set up IFNy ELISPOT to screen for responses against both the peptide used for vaccination and the other predicted epitope peptides with overlapping sequences.
(§1) Dissolved peptides were subsequently emulsified with Montanide™ adjuvant (50ul/mouse) (Seppic Inc.) for an optimal dose of 100 ug total peptide given in a total volume of 100 ul. The emulsified peptide vaccination was injected subcutaneously at the base or the tail or the flank of 12-16 week old C57BL/6 mice with a 27G needle. Control mice were given water and Montanide™ emulsification in a total volume of 100 ul. For therapeutic vaccine studies on tumor inoculated mice, vaccinations were given at day 0 and 7 after tumor inoculation at the flank of the tail and the left flank, respectively. For epitope screening- and validation experiments, a single dose of vaccine was given to mice at the right flank. One week later, mice were sacrificed, and spleens were recovered. Spleens were smashed through a […] filter and red blood cells were lysed using Red Blood Cell Lysis Buffer (Qiagen). Cells were washed 4 times and counted before setup for murine IFNy ELISPOT assay with 8*10^6 cells pr. well.

THP-1 cells [2] = experiment: ARG1/ARG2 expression by RT-qPCR in THP-1 cells; format: cell-based, human; conditions: 48 hr stimulation, FIG. 17C/17H
Description: (§2) Cytokine stimulation with IL-4 (400 U/ml), IL-13 (50 ng/ml), IFNy (100 U/ml) or cytokine cocktail (400 U/ml IL-4, 1000 U/ml GM-CSF and 1000 U/ml TNFa) was done by seeding of 0.5-0.75×10^6 cell/mL medium supplemented with the respective cytokines and 48 hrs of incubation before cells were harvested for various experiments. All cytokines are from Trichem.
(§3) Total RNA was reverse transcribed using the High Capacity cDNA Reverse Transcription Kit (Applied Biosystems). For each reaction, 1000 ng RNA was reverse transcribed. For RT-qPCR, the cDNA was diluted 1:5 and subjected to RT-qPCR analysis using the TaqMan Gene Expression Assay on the Roche Lightcycler 480 Instrument. RT-qPCRs were run in quadruplicates and data was analyzed using the ddCT-method with normalization to expression level of the house keeping gene RPLPO and control sample. For low concentration samples that were not amplified, Ct was set to 40. No-reverse transcriptase controls (cDNA reactions setup without reverse transcriptase) served as controls of specific amplification. A list of primers used in this study is found below.
A set of three siRNA duplexes targeting ARG2 was obtained from Ambion (ARG2 Silencer Select Validated siRNA, ID s1571, s1572, s1573). siRNAs were suspended in nuclease free water to 0.1 nmol stock solutions and stored at −80° C. For ARG2 silencing experiments, THP-1 cells were prepared for electroporation as described above and 10 μl of a working solution of 0.02 nmol siRNA solution was added of each of the three siRNA before transfection as previously described. Immediately after transfection, cells were transferred to pre-warmed medium and incubated for 1 hr. Transfected cells were then split in two and to half of the cells cytokine cocktail (400 U/ml IL-4, 1000 U/ml GM-CSF and 1000 U/ml TNFa) was added. Cells were incubated in medium or medium containing cytokine cocktail for 48 hrs before they were set up in intracellular cytokine staining assay. Cells were pelleted for RNA after 48 hrs for accession of knock down efficiency by RT-qPCR.

[3] = system: Lewis Lung (LL2) tumor cells; experiment: Therapeutic vaccination study in Lewis Lung (LL2) tumor inoculated mice; format: in vivo; conditions: LL2 tumors in C57BL/6 mice, vaccinations day 0 and day 7, compared to control, FIG. 20E-G
Description: LL2 cells (5*10^5) were resuspended in 100 ul of serum free medium and were injected subcutaneously in the right flank of female C57BL/6 mice. Tumor volumes were measured by digital caliper and the endpoint of tumor study was a tumor reaching the threshold size of 800 mm^3 or due to the formation of ulcers on the tumor.
as §1, with “well. […]” for “well.”

MONO-MAC-1 cells = experiment: ARG2 expression by RT-qPCR in MONO-MAC-1 cells; format: cell-based, human; conditions: 48 hrs incubation, FIG. 18A/B
Description: as §2, §3

THP-1 cells [4] = experiment: Flow cytometric analysis of HLA-DR expression in THP-1 cells; format: cell-based, human; conditions: 48 hrs stimulation, data not shown
Description: HLA-DR expression analysis was performed on cells stimulated for 48 hrs with mock (no cytokines), IFNy (100U/ml) or cytokine cocktail (400U/m1 IL-4, 1000 U/ml GM-CSF and 1000 U/ml TNFa). Briefly, cells were washed and stained with 7-AAD (cat: 51-68981E, BD Bioscience) and FITC-conjugated mouse anti-human HLA-DR, DP, DQ (cat: 5555581, BD Bioscience) or FITC-conjugated mouse IgG1 K isotype ctrl (FC) (cat: 400109, BD Bioscience) for 30 minutes at 4° C. Excess antibody was washed off before cells were analyzed on FACSCanto™ II instrument. HLA-DR expression levels is given as the difference in MFI between MHC Class II stained live cells and isotype control stained live cells.

NYDIQYFSMRDIDRLGIQKV (listed as Homo sapiens) [ARG2_21, polypeptide derived from human Arginase2, aa211-230]
IFNy ELISPOT response [1]: stronger response

PNIVYIGL (listed as Mus musculus) [mArg2 P3, polypeptide derived from murine Arginase2, aa191-198]
mIFNy ELISPOT response to the peptide in mice vaccinated with mArg2 P5 (C57BL/6 mice): no response or only weak responses

IL-13: cytokine from Trichem, used at 50 ng/ml [reference compound]
induction of ARG2 expression (THP-1 cells [2]): did not have much effect

WIKPCLSPPNIVYIGL (listed as Mus musculus) [mArg2 P4, polypeptide derived from murine Arginase2, aa182-197]
mIFNy ELISPOT response to the peptide in mice vaccinated with mArg2 P5 (C57BL/6 mice; listed as mArg2_182-197): strong mIFNy responses
mIFNy ELISPOT response after vaccination (C57BL/6 mice): Strong immune responses
tumor growth [3]: decreased tumor growth

FSWIKPCISSASIVYIGLRD (listed as Homo sapiens) [ARG2_18, polypeptide derived from human Arginase2, aa181-200]
IFNy ELISPOT response [1]: strongest and most consistent responses

SASIVYIGLRDVDPPEHFIL (listed as Homo sapiens) [ARG2-E18, polypeptide derived from human Arginase2, aa190-209]
IFNγ ELISPOT response ([1]; hotspot peptide screen, PBMCs from 12 healthy donors and one cancer patient, FIG. 2): highest and most consistent response

LSPPNIVYI (listed as Mus musculus) [mArg2 P5, polypeptide derived from murine Arginase2, aa188-196]
mIFNy ELISPOT response to the peptide in mice vaccinated with mArg2 P5 (C57BL/6 mice; listed as mArg2_188-196): strong mIFNy responses
mIFNy ELISPOT response after vaccination (C57BL/6 mice): strongest and most prominent responses

B1: IL-4: cytokine from Trichem, used at 400 U/ml (protein, UniProt P05112 25-153, looked up)
Interleukin-4: HKCDITLQEIIKTLNSLTEQKTLCTELTVTDIFAASKNTTEKETFCRAATVLRQFYSHHEKDTRCLGATAQQFHRHKQLIRFLKRLDRNLWGLAGLNSCPVKEANQSTLENFLERLKTIMREKYSKCSS
induction of ARG2 expression (THP-1 cells [2]): did not have much effect

B2: IFNy: cytokine from Trichem, used at 100 U/ml (protein, UniProt P01579 24-161, looked up)
Interferon gamma: QDPYVKEAENLKKYFNAGHSDVADNGTLFLGILKNWKEESDRKIMQSQIVSFYFKLFKNFKDDQSIQKSVETIKEDMNVKFFNSNKKKRDDFEKLTNYSVTDLNVQRKAIHELIQVMAELSPAAKTGKRKRSQMLFRG
induction of ARG2 expression (THP-1 cells [2]): not ARG2 expression
ARG2 expression (MONO-MAC-1 cells): did not upregulate ARG2 expression
HLA-DR expression (THP-1 cells [4]): increase HLA-DR expression
